Each structure is given as a SMILES string.

Series [1] deals with haloperidol-induced stiffness. In words: Haloperidol-induced Wistar rat stiffness model (bar test, rearing). Format: in vivo, Wistar rats. The following applies: 10 mg/kg intragastric. The procedure: Time of bar test: The stiffness of the rats was tested by the bar test. That is, a wooden bar with a diameter of 8 mm was fixed between 2 iron stands and was 10 cm from the bench top; and then, the rat's tail was grabbed to make its front paws rest on the wooden bar and its hind paws or buttocks on the ground. Generally, the rat needs to acclimate several times when it was tested for the first time. The time for the forelimbs to drop from the bar or the time for the hind limbs to leave the bench top were tested, each rat was tested 3 times. Number of standings: the number of standings of the rat was measured by the rearing test. That is, the rat was placed in a 27*52 cm cage and acclimate for 5 minutes, and the spontaneous activity behavior, i.e., the number of standings, of the rat within 10 minutes was recorded. When the rat's hind limbs stood with two forelimbs raised over the shoulders and touched the ground, one standing is counted, and the one forelimb lift was excluded. Generally, the rat would raise its forelimbs to touch the cage wall. If the rat raised its forelimbs over the shoulders several times without falling to the ground, only one standing was counted. The time of bar test was taken as a measurement index, including the average time and the maximum time. Long time indicates severe stiffness, short time indicates mild stiffness. After drug treatment, the shorter the time of bar test, the better the effect of the drug on relieving stiffness. The number of standings was counted by the rearing test. The more the number of standings, the more frequent the spontaneous exploration activity of the rat, and the lower the stiffness. The statistical analysis between groups was performed on the data by using Prism GraphPad 7.0 independent sample T test, and P<0.05 was considered as a significant difference.

The target in series [2] is T1, Human adenosine ADORA2A receptor membrane protein (Homo sapiens, UniProt P29274).
T1 construct: purchased PerkinElmer RBHA2AM400UA
As to the kind of experiment: Radioisotope ligand competitive binding, ADORA2A ([3H] CGS-21680). The following applies: ADORA2A (IC50, nM, n = 3), binding test. The procedure: ADORA2A: 50 mM Tris-HCl pH 7.4, 10 mM MgCl2, 1 mM EDTA
4) Preparation of compounds: the test compounds and the reference compounds were separately diluted with 100% DMSO.
1 μL of a sample to be tested and 1 μL of a reference compound were added to a 96-well plate in sequence. […] 100 μL of cells and 100 μL of isotopes were added to all experimental wells. The 96-well plate was sealed; ADORA1, ADORA2B, and ADORA3 were incubated for 1 hour on a shaker (300 rpm) at room temperature (22° C.); and ADORA2A was incubated for 2 hours on a shaker (300 rpm) at room temperature (22° C.). At the same time, a GF/C filter plate was soaked with ADORA1, ADORA2A, ADORA2B, and ADORA3 by using 0.3% PEI for at least 30 minutes at room temperature, at 50 μL/well. After the incubation was completed, the incubated reaction system was collected onto the GF/C filter plate with a Harvester, washed 4 times and then dried for 0.5 hours in an oven at 50° C. The bottom of the dried GF/C filter plate was sealed with a film, 50 μL of scintillation solution was added to each well, which was then sealed with a Top-seal-A film. With Microbeta readings, the data was analyzed by GraphPad Prism 5.0.
% Inhibition=100×(1−(Sample_raw value−Low control_Average)/(High control_Average−Low control_Average))
The data was fitted with “log(inhibitor) vs response-variable slope” in GraphPad Prism 5.0 to obtain IC50.

Series [3] relates to MPTP-induced Parkinson's disease. In words: MPTP-induced mouse Parkinson's disease model, open field test. Type of series: in vivo, C57BL/6 mice. The following applies: open field 10 minutes. The source says:
By injecting the substantia nigra selective toxin MPTP, the mitochondria were intervened to induce lipid peroxidation for disturbing the membrane structure and affecting cell function, and finally the substantia nigra dopaminergic (DA) neurons were selectively destroyed, leading to the massive death of substantia nigra DA neurons, the massive loss of striatum tyrosine hydroxylase-positive fibers, and the significant decrease in the levels of striatum DA and its metabolites 3,4-dihydroxyphenylacetic acid and homovanillic acid. There are also the hyperplasia of the substantia nigra striatal microglia and astrocytes and the damage of locus coeruleus, hypothalamus and other areas, which are basically the same as those in patients with Parkinson's disease. The ameliorative effect of a test substance on the stiffness symptom of Parkinson's disease induced by MPTP in mice was evaluated.
C57BL/6 male mice of 8 weeks old were selected. The 8-week-old C57 mice were intraperitoneally (i.p.) injected with a vehicle dissolved in saline (normal saline) or MPTP (30 mg/kg body weight) for 5 days to induce the Parkinson's disease.
At 0.5 hours after the last MPTP injection, two doses (10 mpk and 30 mpk) were administered by intragastric administration.
At 1.5 hours after the last MPTP injection, an open field test (total travel distance and number of standings) was performed for 10 minutes.

For another series, the system named is B16F10 tumor cells. In words: B16F10 murine melanoma model. Type of series: in vivo. The following applies: for Tumor inhibition rate (%): Day 18. The procedure: The B16F10 murine melanoma model is a classic melanoma pharmaceutical effect evaluation model, which is made by subcutaneously inoculating the same B16F10 tumor cells into female C57BL/6 mice. The test compounds were administrated to evaluate their inhibitory effects on tumor growth in the model.
B16F10 tumor cells were cultured in a DMEM medium containing inactivated 10% fetal bovine serum, 100 U/ml penicillin, 100 μg/ml streptomycin and 2 mM glutamine in an incubator at 37° C. in the presence of 5% CO2; and after the cells grew all over, the tumor cells were divided and passaged in respective flasks every 3 to 4 days. The tumor cells in the logarithmic growth phase were used for in vivo inoculation of tumors.
The B16F10 tumor cells resuspended in a serum-free DMEM culture solution were inoculated subcutaneously at 1×10^5/100 μl to the right ribs of experimental animals. In the second group, when the tumor grew to 75 mm^3, 12 animals with a uniform tumor volume were selected and administered according to the experimental design.
The first day of tumor inoculation was D0, the first, third, and fourth groups were dosed on the second day of tumor inoculation, and the second group was dosed when the tumor volume reached 75 mm^3.
Tumor volume: the tumor volume was measured 3 times a week with a vernier caliper, and the long and short diameters of the tumor were measured. The volume was calculated with a formula as follows:
volume=0.5×long diameter×short diameter^2.
Tumor growth inhibition rate (TGI, %)=(1-T/C)×100.
T/C(%)=(average tumor volume of treatment groups on the current day-average tumor volume of treatment groups on the initial day D0)/(average tumor volume of the control group on the current day-average tumor volume of the control group on the initial day D0)×100.

T1 sequence (P29274 whole entry): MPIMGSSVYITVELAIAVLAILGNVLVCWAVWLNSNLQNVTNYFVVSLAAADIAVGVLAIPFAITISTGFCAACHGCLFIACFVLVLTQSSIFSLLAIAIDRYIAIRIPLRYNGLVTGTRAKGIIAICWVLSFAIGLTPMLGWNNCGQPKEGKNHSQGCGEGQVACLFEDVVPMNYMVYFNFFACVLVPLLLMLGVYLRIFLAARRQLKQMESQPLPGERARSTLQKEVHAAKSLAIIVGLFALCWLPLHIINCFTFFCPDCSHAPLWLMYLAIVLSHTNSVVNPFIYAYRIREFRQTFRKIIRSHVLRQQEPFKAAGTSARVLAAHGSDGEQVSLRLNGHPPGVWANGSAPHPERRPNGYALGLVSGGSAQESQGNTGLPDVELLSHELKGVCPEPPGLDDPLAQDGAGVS

As for `CCn1c(=O)c2c(nc(/C=C/c3ccc(OC)c(OC)c3)n2C)n(CC)c1=O` [Istradefylline, reference compound], in series [1], the “Average on-bar time” value amounted to 10.33 ± 1.58 s and the “Maximum on-bar time” value is 15.38 ± 2.75 s. This compound had a Number of standings in series [1] (1st hour after haloperidol) of 23.25 ± 2.86.
As a reminder, the IC50 is the concentration at which inhibition is half-maximal. High values mean lower potency, low ones higher potency. On to `Cn1nnc(-c2ccc(CCNc3nc(N)n4nc(-c5ccco5)nc4n3)cc2)n1` [Compound 40, N5-(4-(2-methyl-2H-tetrazol-5-yl)phenethyl)-2-(furan-2-yl)-[1,2,4]triazolo[1,5-a][1,3,5]triazine-5,7-diamine], for which the half-inhibitory concentration (IC50) turned out to be 1.85 ± 0.27 nM in series [2] (Table 10 (IC50)) and 1.64 nM in series [2] (Table 11).
As for `Nc1nc(NCCc2ccc(NC3COC3)cc2)nc2nc(-c3ccco3)nn12` [Compound 22, 2-(furan-2-yl)-N5-(4-(oxetan-3-ylamino)phenethyl)-[1,2,4]triazolo[1,5-a][1,3,5]triazine-5,7-diamine], the “Moving distance (cm)” value worked out at 647.0 cm in series [3] (10 mg/kg p.o. once) and 1107.3 cm in series [3] (30 mg/kg p.o. once). Moreover, the results for the Number of standings in series [3] (10 mg/kg p.o. once) and in series [3] (30 mg/kg p.o. once) were 18.3 and 31.0, respectively. In addition, the “Tumor inhibition rate (%)” value in the series with B16F10 tumor cells (50 mg/kg p.o. QD) is 22.1%; with B16F10 tumor cells (50 mg/kg p.o. QD + Anti PD-1 10 mg/kg i.p. 2/WK), 48.1%. Moreover, the “Animal death / changes in body weight” value in the series with B16F10 tumor cells (alone or combined with anti PD-1) is on record as “No animal death or significant changes in body weight”. Besides, the half-maximal inhibitory concentration (IC50) in series [2] (Table 10 (IC50)) was determined as 0.96 ± 0.11 nM; in series [2] (Table 11), 0.85 nM.

Values taken from patent US20230048888A1, “USE OF TRIAZOLOTRIAZINE DERIVATIVE IN TREATMENT OF DISEASES” (ZHEJIANG VIMGREEN PHARMACEUTICALS, LTD., priority 2019, published 2023).
